# Source: PubChem BioAssay AID1963854 (Molecular Pharmacology Branch, DTP, NCI, 2024)
# Test system: 186277-243-T-J2-PDC complex spheroid viability
# Experiment: Anticancer human tumor 186277-243-T-J2-PDC patient-derived colon adenocarcinoma cell line growth inhibition [POLQ]
# Conditions: for IC50: curve of first compound; for viability, T/C: stronger effect = lower value
# Description: Multicellular complex tumor spheroid response to Polymerase (POL) inhibitors (novobiocin, ART-558, RP6685) in combination with a variety of drugs and investigational agents in selected tumor cell lines
# The POL inhibitors (novobiocin, ART-558, and RP6685) were evaluated both individually and in combination with standard of care and investigational anticancer small molecules within a complex spheroid model of solid tumors. . Complex spheroids include a stromal component modeled by human endothelial cells (HUVEC) and fibroblasts modeled by human mesenchymal stem cells (MSCs). The concentration ranges selected for each drug and investigational agent were based upon clinically achievable concentrations if the clinical Cmax of the agent was known.
# Compounds. The drugs and investigational agents: novobiocin (NSC847541), ART-558 (NSC835418), RP-6685 (NSC848927), peposertib (NSC802822), ceralasertib (NSC780249), elimusertib (NSC800525), camonsertib (NSC841442), AZD-1390 (NSC803789), olaparib (NSC753686), talazoparib (NSC767125), rucaparib (NSC756644), sotorasib (NSC818433), MRTX-1133 (NSC836407), SN-38 (NSC673596), topotecan (NSC609699), epotoside (NSC141540), doxorubicin (NSC123127), gemcitabine (NSC613327), 5-fluorouracil (NSC19893), paclitaxel (NSC125973), vemurafenib (NSC761431), MSA-2 (NSC828583), SN-011 (NSC837082), adavosertib (NSC754352), prexasertib (NSC758257), carboplatin (NSC241240) and oxaliplatin (NSC266046), were obtained from the National Cancer Institute (NCI) Developmental Therapeutics Program Chemical Repository (21). The FDA-approved anticancer drug set is available from the Developmental Therapeutics Program at https://dtp.cancer.gov/organization/dscb/obtaining/. […] The stock solutions were prepared in dimethyl sulfoxide (DMSO, Sigma-Aldrich, St. Louis, MO, cat. D2650), except for the platinum compounds which were prepared in saline (Quality Biological, Gaithersburg, MD, cat. 114-055-101), at 800-fold the tested concentration and stored at -70 degrees C prior to their use. All drugs and investigational agents were tested over a range starting from a high concentration at or near the clinical Cmax and decreasing in half-log increments. If the clinical Cmax for an agent had not been determined, the highest concentration tested was 10 microM, except for SN-38, which was tested at a high concentration of 1 microM.
# Cell Culture. All cells were maintained in an incubator at 37 degrees C and 5% CO2 with 95% humidity. The PDC lines were cultured according to standard operating procedures established by the NCI PDMR (https://pdmr.cancer.gov). Table 3 of the manuscript, lists the cell lines along with the number of the three cell types plated to form the mct-spheroids and media for tumor cell growth. After thawing, all PDC lines, except 997537-175-T-J1-PDC and 415267-285-R-J2-PDC, were cultured in Matrigel-coated flasks prepared with a working solution of 1X Ham's F-12 nutrient mix, without supplementation (Thermo Fisher Scientific, cat. 11765054), 100 U/mL penicillin-streptomycin (Thermo Fisher Scientific, cat. 15140122), and 2.5% Matrigel (Corning Inc., Corning, NY, cat. 354248) for the first three passages. The two PDC lines 997537-175-T-J1-PDC and 415267-285-R-J2-PDC were cultured on uncoated flasks. The 857933-349-R-J2-PDC line was cultured in 6C/Colon 1B media containing advanced DMEM/F-12 (Thermo Fisher Scientific, cat. 12634028), 10 mM HEPES (Thermo Fisher Scientific, cat. 15630080), 1X GlutaMAX supplement (Thermo Fisher Scientific, cat. 35050061), 0.1 mg/mL primocin (InvivoGen, San Diego, CA, cat. ant-pm-2), 10% defined fetal bovine serum, heat inactivated (HyClone Laboratories Inc., Logan, UT, cat. SH30070.03HI), 50% L-WRN conditioned media (ATCC, cat. CRL-3276), 1.25 mM N-Acetyl-L-cysteine (Sigma-Aldrich, cat. A9165), 10 mM nicotinamide (Sigma-Aldrich, cat. N0636), 1X B-27 supplement (Thermo Fisher Scientific, cat. 17504044), 1X N-2 supplement (Thermo Fisher Scientific, cat. […]
# [1] = second compound 0.0316 µM, first compound 0.0316 µM
# [2] = second compound 0.0316 µM, first compound 0.1 µM
# [3] = second compound 0.0316 µM, first compound 0.316 µM
# [4] = second compound 0.0316 µM, first compound 1 µM
# [5] = second compound 0.0316 µM, first compound 3.16 µM
# [6] = second compound 0.0316 µM, first compound 10 µM
# [7] = second compound 0.1 µM, first compound 0.0316 µM
# [8] = second compound 0.1 µM, first compound 0.1 µM
# [9] = second compound 0.1 µM, first compound 0.316 µM
# [10] = second compound 0.1 µM, first compound 1 µM
# [11] = second compound 0.1 µM, first compound 3.16 µM
# [12] = second compound 0.1 µM, first compound 10 µM
# [13] = second compound 0.316 µM, first compound 0.0316 µM
# [14] = second compound 0.316 µM, first compound 0.1 µM
# [15] = second compound 0.316 µM, first compound 0.316 µM
# [16] = second compound 0.316 µM, first compound 1 µM
# [17] = second compound 0.316 µM, first compound 3.16 µM
# [18] = second compound 0.316 µM, first compound 10 µM
# [19] = second compound 1 µM, first compound 0.0316 µM
# [20] = second compound 1 µM, first compound 0.1 µM
# [21] = second compound 1 µM, first compound 0.316 µM
# [22] = second compound 1 µM, first compound 1 µM
# [23] = second compound 1 µM, first compound 3.16 µM
# [24] = second compound 1 µM, first compound 10 µM
# [25] = second compound 3.16 µM, first compound 0.0316 µM
# [26] = second compound 3.16 µM, first compound 0.1 µM
# [27] = second compound 3.16 µM, first compound 0.316 µM
# [28] = second compound 3.16 µM, first compound 1 µM
# [29] = second compound 3.16 µM, first compound 3.16 µM
# [30] = second compound 3.16 µM, first compound 10 µM
# [31] = second compound 10 µM, first compound 0.0316 µM
# [32] = second compound 10 µM, first compound 0.1 µM
# [33] = second compound 10 µM, first compound 0.316 µM
# [34] = second compound 10 µM, first compound 1 µM
# [35] = second compound 10 µM, first compound 3.16 µM
# [36] = second compound 10 µM, first compound 10 µM
# 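Note: spheroids exposed to compounds for seven days.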
# 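Throughout, for viability, T/C: 100% = DMSO vehicle control viability.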
smiles,measurement,setting,value
COc1ccc([C@@H](O)c2cc(-c3ncnc4cc(N5CCOCC5)ccc34)c(F)cc2Cl)nn1 + Nc1ccc(C#CCN(C(=O)Cc2ncc(C(F)(F)F)cc2C(F)(F)F)c2ccc(F)cc2)nn1,IC50,second compound 0.0316 µM,> 10 µM
same,IC50,second compound 0.1 µM,> 10 µM
same,IC50,second compound 0.316 µM,> 10 µM
same,IC50,second compound 1 µM,> 10 µM
same,IC50,second compound 3.16 µM,> 10 µM
same,IC50,second compound 10 µM,> 10 µM
same,"viability, T/C",[1],104%
same,"viability, T/C",[2],109%
same,"viability, T/C",[3],110%
same,"viability, T/C",[4],103%
same,"viability, T/C",[5],90.2%
same,"viability, T/C",[6],58.5%
same,"viability, T/C",[7],97.6%
same,"viability, T/C",[8],106%
same,"viability, T/C",[9],99.5%
same,"viability, T/C",[10],96.3%
same,"viability, T/C",[11],101%
same,"viability, T/C",[12],67.7%
same,"viability, T/C",[13],99.3%
same,"viability, T/C",[14],95.6%
same,"viability, T/C",[15],107%
same,"viability, T/C",[16],108%
same,"viability, T/C",[17],101%
same,"viability, T/C",[18],60%
same,"viability, T/C",[19],114%
same,"viability, T/C",[20],101%
same,"viability, T/C",[21],104%
same,"viability, T/C",[22],95.4%
same,"viability, T/C",[23],98.3%
same,"viability, T/C",[24],63.8%
same,"viability, T/C",[25],111%
same,"viability, T/C",[26],105%
same,"viability, T/C",[27],97.6%
same,"viability, T/C",[28],116%
same,"viability, T/C",[29],99.7%
same,"viability, T/C",[30],63.2%
same,"viability, T/C",[31],104%
same,"viability, T/C",[32],90.6%
same,"viability, T/C",[33],102%
same,"viability, T/C",[34],114%
same,"viability, T/C",[35],111%
same,"viability, T/C",[36],57%
O=C(Nc1ccc(O)c(NS(=O)(=O)c2ccc(F)cc2)c1)c1ccc(-c2ccccc2)cc1 + Nc1ccc(C#CCN(C(=O)Cc2ncc(C(F)(F)F)cc2C(F)(F)F)c2ccc(F)cc2)nn1,IC50,second compound 0.0316 µM,> 10 µM
same,IC50,second compound 0.1 µM,> 10 µM
same,IC50,second compound 0.316 µM,> 10 µM
same,IC50,second compound 1 µM,> 10 µM
same,IC50,second compound 3.16 µM,> 10 µM
same,IC50,second compound 10 µM,> 10 µM
same,"viability, T/C",[1],117%
same,"viability, T/C",[2],91%
same,"viability, T/C",[3],92.4%
same,"viability, T/C",[4],89.4%
same,"viability, T/C",[5],99.8%
same,"viability, T/C",[6],110%
same,"viability, T/C",[7],95.5%
same,"viability, T/C",[8],88.8%
same,"viability, T/C",[9],96.7%
same,"viability, T/C",[10],86.5%
same,"viability, T/C",[11],89.9%
same,"viability, T/C",[12],98%
same,"viability, T/C",[13],97.6%
same,"viability, T/C",[14],96%
same,"viability, T/C",[15],97.5%
same,"viability, T/C",[16],96.7%
same,"viability, T/C",[17],101%
same,"viability, T/C",[18],107%
same,"viability, T/C",[19],101%
same,"viability, T/C",[20],96.3%
same,"viability, T/C",[21],92.3%
same,"viability, T/C",[22],81.9%
same,"viability, T/C",[23],103%
same,"viability, T/C",[24],99.9%
same,"viability, T/C",[25],96.3%
same,"viability, T/C",[26],80.8%
same,"viability, T/C",[27],104%
same,"viability, T/C",[28],96.7%
same,"viability, T/C",[29],103%
same,"viability, T/C",[30],95.9%
same,"viability, T/C",[31],103%
same,"viability, T/C",[32],87.5%
same,"viability, T/C",[33],91.2%
same,"viability, T/C",[34],104%
same,"viability, T/C",[35],97.2%
same,"viability, T/C",[36],99.2%
O=C(c1cc(Cc2n[nH]c(=O)c3ccccc23)ccc1F)N1CCN(C(=O)C2CC2)CC1 + Nc1ccc(C#CCN(C(=O)Cc2ncc(C(F)(F)F)cc2C(F)(F)F)c2ccc(F)cc2)nn1,IC50,second compound 0.0316 µM,> 10 µM
same,IC50,second compound 0.1 µM,> 10 µM
same,IC50,second compound 0.316 µM,> 10 µM
same,IC50,second compound 1 µM,> 10 µM
same,IC50,second compound 3.16 µM,> 10 µM
same,IC50,second compound 10 µM,> 10 µM
same,"viability, T/C",[1],105%
same,"viability, T/C",[2],89.9%
same,"viability, T/C",[3],106%
same,"viability, T/C",[4],92.3%
same,"viability, T/C",[5],107%
same,"viability, T/C",[6],121%
same,"viability, T/C",[7],97.5%
same,"viability, T/C",[8],91.6%
same,"viability, T/C",[9],111%
same,"viability, T/C",[10],101%
same,"viability, T/C",[11],104%
same,"viability, T/C",[12],117%
same,"viability, T/C",[13],100%
same,"viability, T/C",[14],96.7%
same,"viability, T/C",[15],98.2%
same,"viability, T/C",[16],93.7%
same,"viability, T/C",[17],102%
same,"viability, T/C",[18],120%
same,"viability, T/C",[19],96.1%
same,"viability, T/C",[20],101%
same,"viability, T/C",[21],98.7%
same,"viability, T/C",[22],105%
same,"viability, T/C",[23],115%
same,"viability, T/C",[24],108%
same,"viability, T/C",[25],95%
same,"viability, T/C",[26],107%
same,"viability, T/C",[27],110%
same,"viability, T/C",[28],95.2%
same,"viability, T/C",[29],110%
same,"viability, T/C",[30],105%
same,"viability, T/C",[31],106%
same,"viability, T/C",[32],110%
same,"viability, T/C",[33],99.5%
same,"viability, T/C",[34],102%
same,"viability, T/C",[35],117%
same,"viability, T/C",[36],95.1%
